Like-named read-outs stand apart in the source and are kept apart here. Ends that are not written are not given here.
Assays:
[1] = system: rBet v 1 specific IgE in sera from birch pollen allergic patients; assay: Competition ELISA for rBet v 1 specific human IgE; conditions: read-out: EC50, inhibition of serum IgE binding to rBet v 1; sera from 6 birch pollen allergic patients (1:5 to 1:10) incubated 1 h with tenfold dilutions of competitor starting at 10^-5 M; rBet v 1 coated plates; '>' = no competitive activity up to this concentration
Protocol: Successively and with washings between steps, plates were incubated 1 h at RT with biotinylated mouse anti-huIgE (Pharmingen, 5 μg/ml, 1 h at RT), Streptavidin-HRP or -alkaline phosphatase (BD, 1:1000 or 1:8000, respectively, 30 min at RT) and TMB (BD OptEIA, ) or 4-NPP. OD were read at 450 nm, 630 nm and 405 nm, respectively. Inhibition of IgE binding to Betv 1 was calculated as: (OD with competitor minus ODmin)/(OD without competitor minus ODmin) × 100, where ODmin was determined in wells without serum.

[2] = system: volunteers allergic to birch pollen; assay: Skin prick testing of birch pollen sensitive volunteers (AN002 phase I clinical trial); conditions: 20 volunteers; for skin prick test positive reactions: even at a 10 μM concentration
Protocol: (§1) The AN002 phase I clinical trial was a single center, open and controlled study conducted at the Centre Hospitalier Universitaire Vaudois (CHUV) in Lausanne. Volunteers (18–45 years) with at least one season history of birch pollen rhinoconjunctivitis or asthma were recruited outside of the birch pollen season. […] The primary objective of the study was to determine the reactogenicity of selected COPs by skin prick tests.
(§2) Individual T1 to T5 COPs, AllerT and T4-T5 mix were evaluated in vivo by skin prick tests following EAACI guidelines [31].

[3] = system: volunteers allergic to birch pollen; conditions: human, in vivo
Protocol: as §1, §2

RBL-2H3 cells = assay: Degranulation assay (beta-hexosaminidase release) on rat basophil line RBL-2H3 loaded with sera from rBet v 1-sensitized mice; type: cell-based
Protocol: Degranulation assay was performed as previously described. RBL-2H3 cells were plated in 96-well tissue culture plates (4×10^4 cells/well) overnight. Passive sensitization of RBL-2H3 cells was carried out with sera from rBet v 1-sensitized mice at a final dilution of 1:30 for 2 h. Unbound antibodies were removed by washing the cell layer twice in Hanks’ balanced salt solution (Sigma-Aldrich, St-Louis, MO, USA). […] The reaction was stopped by addition of 100 μl glycine buffer (0.2M glycine, 0.2M NaCl, pH 10.7) and optical densities (OD) measured at 405 nm.

[4] = system: RBL703/21 cells (RBL transfected with human FcϵRI); assay: Degranulation assay (beta-hexosaminidase release) on humanised basophil cell line RBL703/21; type: cell-based, rat; conditions: RBL703/21 incubated overnight with sera from ten patients (ImmunoCAP classes 4 to 6); 1 h 37°C
Protocol: The assay was adapted from Ladics et al. and Blanc et al.. RBL cells transfected with human FcϵRI (RBL703/21, kind gift of Dr L. Vogel, Paul-Ehrlich Institute, Germany) were plated at 10^5 cells/well in medium (MEM containing glutamine and penicillin/streptomycin) and incubated overnight with sera from subjects with class 4, 5 and 6 IgE levels to birch pollen extract as determined by ImmunoCAP (Phadia, Uppsala, Sweden). Human serum was diluted 1/2 with 4M glucose and incubated for 45 min at 56°C, centrifuged and diluted 1/5 with MEM medium before addition to RBL703/21 cells. […] Supernatants (30 μl) were incubated in duplicates with 50 μl of substrate solution (1.3 mg/ml p-nitrophenyl-b-D-2-acetamido-2-deoxyglucopyranozide from Sigma in 0.1 M citrate pH 4.5) for 1 hour at 37°C. Reaction was stopped by the addition of 100 μl of 0.2 M glycin (pH 10.7). OD was measured at 405 nm (reference filter at 620 nm). β-hexosaminidase release was calculated using the following formula: (OD sample-ODbuffer) / (ODanti-IgE-ODbuffer) × 100.

[5] = dilution 1:1 of the concentration given (COPs and mixes 10 μM, rBet v 1 1 μM, birch 100’000 SQ), EAACI guidelines
[6] = dilution 1:100 of the concentration given
[7] = dilution 1:1 of the concentration given in the row (10 μM)

Molecule | EC50 [1] | Positive skin reactions (≥3 mm wheal and flare present), number of volunteers [2, 5] | 0 mm <Skin reaction < 3 mm (sub-threshold), number of volunteers ([2]; dilution 1:10) | Positive skin reactions (≥3 mm wheal and flare present), number of volunteers ([2]; dilution 1:10) | 0 mm <Skin reaction < 3 mm (sub-threshold), number of volunteers [2, 6] | Positive skin reactions (≥3 mm wheal and flare present), number of volunteers [2, 6] | 0 mm <Skin reaction < 3 mm (sub-threshold), number of volunteers [2, 7] | Positive skin reactions (≥3 mm wheal and flare present), number of volunteers [3] | skin prick test positive reactions [2] | optimal rBet v 1 concentration for hexosaminidase release (RBL-2H3 cells; RBL-2H3 loaded with sera from rBet v 1-sensitized mice, serial concentrations) | hexosaminidase release (RBL-2H3 cells; RBL-2H3 primed with sera from Bet v 1-sensitized mice (1:30), stimulation 1 h 37°C, COPs and AllerT at 5.7 nM (n=10) and 57 nM (n=3), OD 405 nm) | dose at which maximal degranulation response was reached [4] | positive skin prick reactions, share of patients ([2]; allergen concentration lowered by 10 fold (birch 10’000 SQ, rBet v 1 0.1 μM))
VATPDGGSILKISNKYHTKGDHEVKAEQVKASKEMGETLLRAVESYLLAHSDAYN [T3] | > 10 µM |  |  |  |  |  |  | 0 |  |  |  |  | 
T5: Bet v 1-derived synthetic contiguous overlapping peptide, aa 65-160 (peptide, UniProt P15494 65-160, looked up, fragment) FKYVKDRVDEVDHTNFKYNYSVIEGGPIGDTLEKISNEIKIVATPDGGSILKISNKYHTKGDHEVKAEQVKASKEMGETLLRAVESYLLAHSDAYN | > 10 µM | 0 | 0 | 0 | 0 | 0 |  |  |  |  |  |  | 
rBet v 1: recombinant major birch pollen allergen Bet v 1 (BIOMAY, Vienna, Austria) (protein, UniProt P15494 2-160, looked up) Major pollen allergen Bet v …: GVFNYETETTSVIPAARLFKAFILDGDNLFPKVAPQAISSVENIEGNGGPGTIKKISFPEGFPFKYVKDRVDEVDHTNFKYNYSVIEGGPIGDTLEKISNEIKIVATPDGGSILKISNKYHTKGDHEVKAEQVKASKEMGETLLRAVESYLLAHSDAYN |  |  |  | 16 |  | 2 |  |  |  | 0.57 nM | accumulated significantly | 10^-9 M | 80%

Second part, led by results:

EC50 [1] | Positive skin reactions (≥3 mm wheal and flare present), number of volunteers [2, 5] | 0 mm <Skin reaction < 3 mm (sub-threshold), number of volunteers ([2]; dilution 1:10) | Positive skin reactions (≥3 mm wheal and flare present), number of volunteers ([2]; dilution 1:10) | 0 mm <Skin reaction < 3 mm (sub-threshold), number of volunteers [2, 6] | Positive skin reactions (≥3 mm wheal and flare present), number of volunteers [2, 6] | 0 mm <Skin reaction < 3 mm (sub-threshold), number of volunteers [2, 7] | Positive skin reactions (≥3 mm wheal and flare present), number of volunteers [3] | Molecule | skin prick test positive reactions [2] | optimal rBet v 1 concentration for hexosaminidase release (RBL-2H3 cells; RBL-2H3 loaded with sera from rBet v 1-sensitized mice, serial concentrations) | hexosaminidase release (RBL-2H3 cells; RBL-2H3 primed with sera from Bet v 1-sensitized mice (1:30), stimulation 1 h 37°C, COPs and AllerT at 5.7 nM (n=10) and 57 nM (n=3), OD 405 nm) | dose at which maximal degranulation response was reached [4] | positive skin prick reactions, share of patients ([2]; allergen concentration lowered by 10 fold (birch 10’000 SQ, rBet v 1 0.1 μM))
> 10 µM | 0 | 0 | 0 | 0 | 0 |  |  | GVFNYETETTSVIPAARLFKAFILDGDNLFPKVAPQAISSVENIEGNGG [T1] | unable to elicit skin prick test positive reactions |  |  |  | 
> 10 µM | 0 | 0 | 0 | 1 | 0 | 0 |  | GVFNYETETTSVIPAARLFKAFILDGDNLFPKVAPQAISSVENIEGNGGPGTIKKISFPEGFPFKYVKDRVDEVDHTNFKYNYS [T4] |  |  |  |  | 
> 10 µM | 0 | 0 | 0 | 0 | 0 | 0 |  | NGGPGTIKKISFPEGFPFKYVKDRVDEVDHTNFKYNYSVIEGGPIGDTLEKISNEIKIVATPDGGSILKIS [T2] | unable to elicit skin prick test positive reactions |  |  |  | 
